Data published in the NIST ThermoML archive (doi:10.1016/j.jct.2013.10.001).
“And” between values parts separate entries of the source, which are not always exact repeats. Identical values can stand only once.

Settings: Liquid

CC(C)CCCC(C)CCCC(C)CCCCC(C)CCCC(C)CCCC(C)C (stereo not given) [2,6,10,15,19,23-hexamethyltetracosane]
viscosity
Settings	Falling or rolling sphere viscometry	quartz resonator viscometer
293.15 K, 10220 kPa	–	45.8 mPa·s and 46.2 mPa·s
293.15 K, 20250 kPa	–	57.9 mPa·s and 58.5 mPa·s
293.15 K, 30090 kPa	–	70.8 mPa·s and 71.5 mPa·s
293.15 K, 40100 kPa	–	87 mPa·s and 87.9 mPa·s
293.15 K, 50070 kPa	–	108.1 mPa·s and 109.2 mPa·s
293.15 K, 60060 kPa	–	130 mPa·s and 131.3 mPa·s
293.15 K, 71000 kPa	–	160.4 mPa·s and 162.1 mPa·s
293.15 K, 80600 kPa	–	180.6 mPa·s and 182.4 mPa·s
303.15 K, 11300 kPa	–	28.6 mPa·s and 28.5 mPa·s
303.15 K, 19900 kPa	–	34.1 mPa·s and 34 mPa·s
303.15 K, 20000 kPa	34.78 mPa·s	–
303.15 K, 31400 kPa	–	43.9 mPa·s and 43.8 mPa·s
303.15 K, 40000 kPa	51.64 mPa·s	–
303.15 K, 40600 kPa	–	53 mPa·s and 52.9 mPa·s
303.15 K, 50900 kPa	–	64.7 mPa·s and 64.6 mPa·s
303.15 K, 60000 kPa	74.96 mPa·s	78.3 mPa·s and 78.1 mPa·s
303.15 K, 71700 kPa	–	94.7 mPa·s and 94.5 mPa·s
303.15 K, 80000 kPa	107.09 mPa·s	107.8 mPa·s and 107.5 mPa·s
303.15 K, 100000 kPa	146.47 mPa·s	–
303.15 K, 120000 kPa	210.53 mPa·s	–
303.15 K, 140000 kPa	305.4 mPa·s	–
303.15 K, 160000 kPa	422.48 mPa·s	–
313.15 K, 10000 kPa	16.8 mPa·s	–
313.15 K, 10110 kPa	–	18.2 mPa·s and 18.3 mPa·s
313.15 K, 15000 kPa	18.9 mPa·s	–
313.15 K, 20170 kPa	–	22.4 mPa·s and 22.6 mPa·s
313.15 K, 25000 kPa	23.8 mPa·s	–
313.15 K, 29620 kPa	–	26.6 mPa·s and 26.9 mPa·s
313.15 K, 40550 kPa	–	32.5 mPa·s and 32.8 mPa·s
313.15 K, 49650 kPa	–	38.5 mPa·s and 38.8 mPa·s
313.15 K, 50000 kPa	39.2 mPa·s and 36.3 mPa·s	–
313.15 K, 60500 kPa	–	47 mPa·s and 47.4 mPa·s
313.15 K, 70400 kPa	–	55.9 mPa·s and 56.4 mPa·s
313.15 K, 75000 kPa	61.2 mPa·s and 59.6 mPa·s	–
313.15 K, 80670 kPa	–	66.4 mPa·s and 66.9 mPa·s
313.15 K, 100000 kPa	92.3 mPa·s and 91.3 mPa·s	–
313.15 K, 125000 kPa	136.4 mPa·s and 134.8 mPa·s	–
313.15 K, 150000 kPa	199 mPa·s and 194.1 mPa·s	–
313.15 K, 175000 kPa	275.3 mPa·s	–
313.15 K, 200000 kPa	386.2 mPa·s	–
313.15 K, 225000 kPa	537.7 mPa·s	–
313.15 K, 250000 kPa	744.7 mPa·s	–
323.15 K, 10250 kPa	–	12.8 mPa·s and 12.7 mPa·s
323.15 K, 20000 kPa	15.77 mPa·s	–
323.15 K, 20340 kPa	–	15.5 mPa·s
323.15 K, 30170 kPa	–	18.4 mPa·s
323.15 K, 40000 kPa	22.36 mPa·s	–
323.15 K, 40160 kPa	–	21.8 mPa·s
323.15 K, 50130 kPa	–	25.8 mPa·s
323.15 K, 60000 kPa	31.17 mPa·s	–
323.15 K, 60110 kPa	–	30.8 mPa·s and 30.8 mPa·s
323.15 K, 70120 kPa	–	36.2 mPa·s
323.15 K, 80000 kPa	42.71 mPa·s	–
323.15 K, 80060 kPa	–	43 mPa·s
323.15 K, 100000 kPa	57.75 mPa·s	–
323.15 K, 120000 kPa	77.38 mPa·s	–
323.15 K, 140000 kPa	102.35 mPa·s	–
323.15 K, 160000 kPa	135.1 mPa·s	–
323.15 K, 180000 kPa	175.94 mPa·s	–
323.15 K, 200000 kPa	228.18 mPa·s	–
333.15 K, 9160 kPa	–	9 mPa·s
333.15 K, 19900 kPa	–	10.9 mPa·s
333.15 K, 30240 kPa	–	13 mPa·s and 13.1 mPa·s
333.15 K, 40000 kPa	–	15.3 mPa·s
333.15 K, 49340 kPa	–	17.7 mPa·s
333.15 K, 60990 kPa	–	21.4 mPa·s
333.15 K, 70280 kPa	–	25 mPa·s
333.15 K, 80900 kPa	–	28.5 mPa·s and 28.6 mPa·s
338.15 K, 50600 kPa	15.56 mPa·s	–
338.15 K, 102800 kPa	32.94 mPa·s	–
338.15 K, 150200 kPa	60.9 mPa·s	–
338.15 K, 198400 kPa	108.9 mPa·s	–
338.15 K, 249700 kPa	194 mPa·s	–
338.15 K, 272700 kPa	243.8 mPa·s	–
338.15 K, 299800 kPa	327.6 mPa·s	–
338.15 K, 349200 kPa	538.5 mPa·s and 531 mPa·s	–
343.15 K, 10000 kPa	7.3 mPa·s	–
343.15 K, 15000 kPa	8 mPa·s	–
343.15 K, 25000 kPa	9.4 mPa·s	–
343.15 K, 50000 kPa	13.6 mPa·s	–
343.15 K, 75000 kPa	19.2 mPa·s and 18.7 mPa·s	–
343.15 K, 100000 kPa	26.5 mPa·s and 27.2 mPa·s	–
343.15 K, 125000 kPa	36.2 mPa·s and 38.1 mPa·s	–
343.15 K, 150000 kPa	49.1 mPa·s and 52 mPa·s	–
343.15 K, 175000 kPa	69.9 mPa·s	–
343.15 K, 200000 kPa	92.8 mPa·s	–
343.15 K, 225000 kPa	122.1 mPa·s	–
343.15 K, 250000 kPa	159.6 mPa·s	–
348.15 K, 20000 kPa	7.45 mPa·s	–
348.15 K, 40000 kPa	10.15 mPa·s	–
348.15 K, 60000 kPa	13.51 mPa·s	–
348.15 K, 80000 kPa	17.79 mPa·s	–
348.15 K, 100000 kPa	23.08 mPa·s	–
348.15 K, 120000 kPa	29.61 mPa·s	–
348.15 K, 140000 kPa	37.63 mPa·s	–
348.15 K, 160000 kPa	48.09 mPa·s	–
348.15 K, 180000 kPa	60.38 mPa·s	–
348.15 K, 198300 kPa	70.83 mPa·s	–
348.15 K, 200000 kPa	74.91 mPa·s	–
348.15 K, 200400 kPa	72.63 mPa·s	–
348.15 K, 300600 kPa	202.9 mPa·s	–
348.15 K, 349800 kPa	327.6 mPa·s	–
363.15 K, 10200 kPa	4.36 mPa·s	–
363.15 K, 21000 kPa	5.15 mPa·s	–
363.15 K, 30900 kPa	5.97 mPa·s	–
363.15 K, 40700 kPa	6.84 mPa·s	–
363.15 K, 50600 kPa	7.82 mPa·s	–
363.15 K, 60600 kPa	8.94 mPa·s	–
363.15 K, 70700 kPa	10.18 mPa·s	–
363.15 K, 80600 kPa	11.49 mPa·s	–
363.15 K, 91000 kPa	13.06 mPa·s	–
363.15 K, 100000 kPa	14.59 mPa·s and 14.2 mPa·s	–
363.15 K, 120400 kPa	18.36 mPa·s	–
363.15 K, 125000 kPa	19.9 mPa·s	–
363.15 K, 150000 kPa	26.8 mPa·s	–
363.15 K, 150300 kPa	25.56 mPa·s	–
363.15 K, 175000 kPa	35.1 mPa·s	–
363.15 K, 200000 kPa	45 mPa·s	–
363.15 K, 200200 kPa	42.82 mPa·s	–
363.15 K, 225000 kPa	56.7 mPa·s	–
363.15 K, 225600 kPa	55.03 mPa·s	–
363.15 K, 246900 kPa	66.23 mPa·s	–
363.15 K, 250000 kPa	70.4 mPa·s	–
